Assay results reported in US20090061022A1, “Pharmaceutical composition comprising arsenite for the treatment of malignancy” (priority 2004, published 2009).
Marks after values point to notes of the source that are not given here.

System: ALL-SCID 4
Assay: Anticancer activity in human leukemia model ALL-SCID 4
Conditions: 100 mg/kg i.p., day 25
From the text: Anticancer activity of the sodium meta-arsenite and arsenic trioxide against two human paediatric acute lymphoblastic leukemia (ALL) models in vivo, ALL-SCID 4 was investigated to compare.
Male NOD/SCID mice (deficient in T and B lymphocytes, NK cells and functional macrophages) were transplanted s.c. on day 0 with fragments of ALL-SCID 4 cancers, which were obtained from mice used for routine passage of the cancers. Mice were randomized to the scheduled treatment groups.
Sodium meta-arsenite was administered orally at 2, 4 and 6 mg/kg/day (⅓ MTD, ⅔ MTD and MTD) once every day from day 34-54 after transplantation. The vehicle control (5% glucose in water) was administered i.p. (10 ml/kg).
Sodium meta-arsenite was dissolved in ready-to-use sterile infusion (5% (w/v) glucose in aqua injectabila). Arsenic trioxide was dissolved in 25 mM NaOH then dissolved in 5% glucose in aqua injectabila. The solutions were prepared freshly on the day of therapy for each administration.

## O=P1(N(CCCl)CCCl)NCCCO1 (stereo not drawn) [Cyclophosphamide, reference compound]
  BW loss % (day): +4 (34) %
  Drug-related deaths: 0/8
  T/C %: 4* %
